Experiment [1] concerns Staphylococcus epidermidis. Briefly: Antibacterial activity against Staphylococcus epidermidis 1457 assessed as inhibition of biofilm formation at 10 ug/ml incubated for 5 hrs by confocal microscopic analysis. Type of experiment: functional, organism-based. The conditions noted are these: dose 10.0 µg/ml.
Experiment [2] relates to Staphylococcus aureus. Kind of experiment: Antibacterial activity against Staphylococcus aureus 15981 assessed as inhibition of biofilm formation at 10 ug/ml incubated for 5 hrs by confocal microscopic analysis. Type of experiment: functional, organism-based. The conditions noted are these: dose 10.0 µg/ml.
Experiment [3] relates to Staphylococcus aureus. Briefly: Antibacterial activity against methicilin-resistant Staphylococcus aureus 42412 assessed as inhibition of bacterial growth. It counts as functional.
Experiment [4] relates to Staphylococcus epidermidis. Kind of experiment: Antibacterial activity against Staphylococcus epidermidis 12228 assessed as inhibition of bacterial growth. It counts as functional.
In experiment [5] the test system is Enterococcus faecium. Kind of experiment: Antibacterial activity against Vancomycin-resistant Enterococcus […] ATCC 700802 assessed as inhibition of bacterial growth. It counts as functional.
Experiment [6] deals with Staphylococcus saprophyticus. Kind of experiment: Antibacterial activity against Staphylococcus saprophyticus ATCC 49453 assessed as inhibition of bacterial growth. Type of experiment: functional.
In experiment [7] the test system is Staphylococcus aureus. Briefly: Antibacterial activity against methicilin-resistant Staphylococcus aureus 21455 assessed as inhibition of bacterial growth. It counts as functional.
The subject of experiment [8] is Staphylococcus aureus. Kind of experiment: Antibacterial activity against Staphylococcus aureus 4299 assessed as inhibition of bacterial growth. It counts as functional.
Experiment [9] relates to Bacillus subtilis. Kind of experiment: Antibacterial activity against Bacillus subtilis ATCC 6633 assessed as inhibition of bacterial growth. It counts as functional.
For experiment [10], the system named is Staphylococcus saprophyticus. Kind of experiment: Antibacterial activity against Staphylococcus saprophyticus ATCC 49907 assessed as inhibition of bacterial growth. It counts as functional.
Experiment [11] has as its system Staphylococcus aureus. Kind of experiment: Antibacterial activity against methicilin-resistant Staphylococcus aureus ATCC 700699 assessed as inhibition of bacterial growth. It counts as functional.
The subject of experiment [12] is Bacillus cereus. Briefly: Antibacterial activity against Bacillus cereus ATCC 11788 assessed as inhibition of bacterial growth. Type of experiment: functional.
For experiment [13], the system named is Staphylococcus aureus. Briefly: Antibacterial activity against methicilin-resistant Staphylococcus aureus 1003 assessed as inhibition of bacterial growth. Type of experiment: functional.
Experiment [14] has as its system Enterococcus faecium. Briefly: Antibacterial activity against Vancomycin-resistant Enterococcus […] ATCC 29212 assessed as inhibition of bacterial growth. It counts as functional. Particulars: Enterococcus faecalis.
Experiment [15] deals with Staphylococcus saprophyticus. Briefly: Antibacterial activity against Staphylococcus saprophyticus ATCC 15305 assessed as inhibition of bacterial growth. Type of experiment: functional.
Experiment [16] concerns Enterococcus faecium. Kind of experiment: Antibacterial activity against Vancomycin-resistant Enterococcus faecium 1014 assessed as inhibition of bacterial growth. Type of experiment: functional.
Experiment [17] deals with Staphylococcus aureus. Briefly: Antibacterial activity against Staphylococcus aureus 29213 assessed as inhibition of bacterial growth. It counts as functional.
Experiment [18] has as its system Staphylococcus saprophyticus. Briefly: Antibacterial activity against Staphylococcus saprophyticus ATCC BAA 750 assessed as inhibition of bacterial growth. Type of experiment: functional.

Values after ≈ are worked out from the molar mass of the structure shown. Active and inactive are the calls of the source.

As for `CN[C@H](CC(C)C)C(=O)N[C@H]1C(=O)N[C@@H](CC(N)=O)C(=O)N[C@H]2C(=O)N[C@H]3C(=O)N[C@H](C(=O)N[C@H](C(=O)O)c4cc(O)cc(O)c4-c4cc3ccc4O)[C@H](O)c3ccc(c(Cl)c3)Oc3cc2cc(c3O[C@@H]2O[C@H](CO)[C@@H](O)[C@H](O)[C@H]2O[C@H]2C[C@](C)(N)[C@H](O)[C@H](C)O2)Oc2ccc(cc2Cl)[C@H]1O`, the result in experiment [1] and in [2] was Active.
In the case of `CCC[C@@H]1NC(=O)[C@H](C)NC(=O)[C@H](NC(=O)[C@H](CO)NC(=O)[C@@H](NC(=O)[C@H](NC(=O)[C@@H](CCCNC(=N)N)NC(=O)[C@H](CO)NC(=O)[C@@H](NC(=O)[C@@H](Cc2ccccc2)NC)[C@@H](C)CC)[C@@H](C)CC)[C@@H](C)CC)[C@H](C)OC(=O)[C@H]([C@@H](C)CC)NC1=O`, the MIC – broadly, the smallest concentration in the dilution series that meets the test's criterion for growth inhibition – in experiment [3] worked out at 0.063 µg/mL (≈ 0.0518 µM); in experiment [4], 0.063 µg/mL (≈ 0.0518 µM); in experiment [5], 0.5 µg/mL (≈ 0.411 µM); in experiment [6] it was 0.063 µg/mL (≈ 0.0518 µM); in experiment [7], 0.125 µg/mL (≈ 0.103 µM); in experiment [8], 0.063 µg/mL (≈ 0.0518 µM). The MIC is 0.063 µg/mL (≈ 0.0518 µM) in experiment [9]; 0.063 µg/mL (≈ 0.0518 µM) in experiment [10]; 0.063 µg/mL (≈ 0.0518 µM) in experiment [11]; 0.5 µg/mL (≈ 0.411 µM) in experiment [12]; 0.125 µg/mL (≈ 0.103 µM) in [13]; 1 µg/mL (≈ 0.823 µM) in experiment [14]. For the same compound, the MIC in [15] is 0.063 µg/mL (≈ 0.0518 µM); in experiment [16] it was 1 µg/mL (≈ 0.823 µM); in experiment [17], 0.125 µg/mL (≈ 0.103 µM); in experiment [18], 0.063 µg/mL (≈ 0.0518 µM).
As to `CCC[C@@H]1NC(=O)[C@H](CCCNC(=N)N)NC(=O)[C@H](NC(=O)[C@H](CO)NC(=O)[C@@H](NC(=O)[C@H](NC(=O)[C@@H](CCCNC(=N)N)NC(=O)[C@H](CO)NC(=O)[C@@H](NC(=O)[C@@H](Cc2ccccc2)NC)[C@@H](C)CC)[C@@H](C)CC)[C@@H](C)CC)[C@H](C)OC(=O)[C@H]([C@@H](C)CC)NC1=O`, the minimal inhibitory concentration (MIC) in experiment [3] is 0.125 µg/mL (≈ 0.0961 µM); in experiment [4] it was 0.063 µg/mL (≈ 0.0484 µM); in [5], 1 µg/mL (≈ 0.769 µM); in experiment [6], 0.063 µg/mL (≈ 0.0484 µM); in experiment [7] it was 0.5 µg/mL (≈ 0.384 µM); in experiment [8], 0.063 µg/mL (≈ 0.0484 µM). Further, the MIC in experiment [9] was 0.5 µg/mL (≈ 0.384 µM); in [10], 0.063 µg/mL (≈ 0.0484 µM); in experiment [11], 0.5 µg/mL (≈ 0.384 µM); in experiment [12], 1 µg/mL (≈ 0.769 µM); in experiment [13], 1 µg/mL (≈ 0.769 µM); in experiment [14], 2 µg/mL (≈ 1.54 µM). In addition, the MIC stood at 0.063 µg/mL (≈ 0.0484 µM) in experiment [15], 2 µg/mL (≈ 1.54 µM) in experiment [16], 0.25 µg/mL (≈ 0.192 µM) in experiment [17] and 0.063 µg/mL (≈ 0.0484 µM) in experiment [18].
In the case of `CC[C@H](C)[C@H](NC(=O)[C@@H](Cc1ccccc1)NC)C(=O)N[C@@H](CCCNC(=N)N)C(=O)N[C@H](CCC(N)=O)C(=O)N[C@@H](C(=O)N[C@H](C(=O)N[C@@H](CO)C(=O)N[C@H]1C(=O)N[C@@H](CCCNC(=N)N)C(=O)N[C@@H](C2CCCCC2)C(=O)N[C@@H]([C@@H](C)CC)C(=O)O[C@H]1C)[C@@H](C)CC)[C@@H](C)CC`, the MIC in experiment [3] was 0.063 µg/mL (≈ 0.0456 µM); in [4] it was 0.063 µg/mL (≈ 0.0456 µM); in experiment [5], 1 µg/mL (≈ 0.724 µM); in experiment [6] it was 0.063 µg/mL (≈ 0.0456 µM); in experiment [7] it was 0.5 µg/mL (≈ 0.362 µM); in [8], 0.063 µg/mL (≈ 0.0456 µM). Moreover, the minimum inhibitory concentration (MIC) in experiment [9] is 0.063 µg/mL (≈ 0.0456 µM); in experiment [10], 0.063 µg/mL (≈ 0.0456 µM); in experiment [11], 0.5 µg/mL (≈ 0.362 µM); in [12] it was 1 µg/mL (≈ 0.724 µM); in experiment [13], 0.5 µg/mL (≈ 0.362 µM); in experiment [14], 1 µg/mL (≈ 0.724 µM). Also, the minimal inhibitory concentration (MIC) in experiment [15] is below 0.063 µg/mL; in [16], 1 µg/mL (≈ 0.724 µM); in experiment [17], 0.25 µg/mL (≈ 0.181 µM); in [18] it was below 0.063 µg/mL.

The values are drawn from ChEMBL document CHEMBL5634143, “Development of teixobactin analogues containing hydrophobic, non-proteogenic amino acids that are highly potent against multidrug-resistant bacteria and biofilms” (Eur J Med Chem, 2023).
